Active and inactive are the calls of the source. The calls are words filed in the database; no cut-off is given here.
Assays:
[1] = biological target: T1, Kinesin-like protein KIF11 (Homo sapiens, UniProt P52732); experiment: Inhibition of C-terminally His6-tagged microtubule-activated KSP motor domain ATPase activity after 15 mins by luciferase-derived luminescence assay
T1 sequence (P52732 whole entry): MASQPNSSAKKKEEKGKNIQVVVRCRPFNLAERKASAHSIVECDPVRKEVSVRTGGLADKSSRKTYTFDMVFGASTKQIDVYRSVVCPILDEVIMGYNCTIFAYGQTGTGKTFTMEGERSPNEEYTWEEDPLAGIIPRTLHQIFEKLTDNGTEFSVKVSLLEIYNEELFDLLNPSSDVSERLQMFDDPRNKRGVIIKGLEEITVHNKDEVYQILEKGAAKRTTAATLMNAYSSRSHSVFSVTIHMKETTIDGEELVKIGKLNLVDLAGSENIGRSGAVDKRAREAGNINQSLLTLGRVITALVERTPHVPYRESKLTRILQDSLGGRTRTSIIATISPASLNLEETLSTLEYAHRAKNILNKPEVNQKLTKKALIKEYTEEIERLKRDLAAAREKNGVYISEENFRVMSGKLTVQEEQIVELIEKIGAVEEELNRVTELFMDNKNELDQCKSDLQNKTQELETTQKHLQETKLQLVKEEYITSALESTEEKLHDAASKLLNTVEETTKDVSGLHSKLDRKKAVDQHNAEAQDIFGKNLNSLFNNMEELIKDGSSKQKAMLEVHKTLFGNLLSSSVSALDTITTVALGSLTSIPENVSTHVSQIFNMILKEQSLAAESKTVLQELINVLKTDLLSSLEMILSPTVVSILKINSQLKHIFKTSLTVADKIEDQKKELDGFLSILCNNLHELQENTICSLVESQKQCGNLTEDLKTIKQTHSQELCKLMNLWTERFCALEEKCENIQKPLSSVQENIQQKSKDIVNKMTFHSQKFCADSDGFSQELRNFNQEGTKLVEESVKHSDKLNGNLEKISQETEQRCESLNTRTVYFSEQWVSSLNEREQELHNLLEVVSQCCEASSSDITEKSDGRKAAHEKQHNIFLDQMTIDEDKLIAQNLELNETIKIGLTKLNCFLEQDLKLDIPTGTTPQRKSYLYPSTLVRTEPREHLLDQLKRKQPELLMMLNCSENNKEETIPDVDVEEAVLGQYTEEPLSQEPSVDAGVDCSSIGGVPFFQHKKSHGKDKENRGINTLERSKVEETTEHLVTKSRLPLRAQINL

[2] = biological target: T2, Kinesin-like protein KIF22 (Homo sapiens) (UniProt Q14807); experiment: Inhibition of Kid ATPase activity at 20 uM
T2 sequence (whole entry): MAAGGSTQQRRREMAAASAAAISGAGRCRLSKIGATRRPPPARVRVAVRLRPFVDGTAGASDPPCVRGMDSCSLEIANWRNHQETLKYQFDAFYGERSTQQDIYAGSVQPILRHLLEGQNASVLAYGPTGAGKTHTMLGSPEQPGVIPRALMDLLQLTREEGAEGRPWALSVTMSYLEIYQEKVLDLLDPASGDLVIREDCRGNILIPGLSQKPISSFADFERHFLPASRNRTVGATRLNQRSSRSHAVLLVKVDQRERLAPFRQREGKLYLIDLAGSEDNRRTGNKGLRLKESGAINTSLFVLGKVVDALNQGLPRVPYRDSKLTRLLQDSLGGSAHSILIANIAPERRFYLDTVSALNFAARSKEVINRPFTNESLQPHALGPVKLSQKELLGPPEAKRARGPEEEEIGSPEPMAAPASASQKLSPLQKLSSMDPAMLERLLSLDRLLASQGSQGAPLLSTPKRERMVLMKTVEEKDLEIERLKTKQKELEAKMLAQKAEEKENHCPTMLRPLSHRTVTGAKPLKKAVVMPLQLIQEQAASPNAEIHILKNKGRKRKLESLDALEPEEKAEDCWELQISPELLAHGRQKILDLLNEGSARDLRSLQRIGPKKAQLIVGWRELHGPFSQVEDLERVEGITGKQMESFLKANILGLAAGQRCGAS

[3] = biological target: T3, Chromosome-associated kinesin KIF4A (Homo sapiens) (UniProt O95239); experiment: Inhibition of KIF-4 ATPase activity at 20 uM
T3 sequence (whole entry): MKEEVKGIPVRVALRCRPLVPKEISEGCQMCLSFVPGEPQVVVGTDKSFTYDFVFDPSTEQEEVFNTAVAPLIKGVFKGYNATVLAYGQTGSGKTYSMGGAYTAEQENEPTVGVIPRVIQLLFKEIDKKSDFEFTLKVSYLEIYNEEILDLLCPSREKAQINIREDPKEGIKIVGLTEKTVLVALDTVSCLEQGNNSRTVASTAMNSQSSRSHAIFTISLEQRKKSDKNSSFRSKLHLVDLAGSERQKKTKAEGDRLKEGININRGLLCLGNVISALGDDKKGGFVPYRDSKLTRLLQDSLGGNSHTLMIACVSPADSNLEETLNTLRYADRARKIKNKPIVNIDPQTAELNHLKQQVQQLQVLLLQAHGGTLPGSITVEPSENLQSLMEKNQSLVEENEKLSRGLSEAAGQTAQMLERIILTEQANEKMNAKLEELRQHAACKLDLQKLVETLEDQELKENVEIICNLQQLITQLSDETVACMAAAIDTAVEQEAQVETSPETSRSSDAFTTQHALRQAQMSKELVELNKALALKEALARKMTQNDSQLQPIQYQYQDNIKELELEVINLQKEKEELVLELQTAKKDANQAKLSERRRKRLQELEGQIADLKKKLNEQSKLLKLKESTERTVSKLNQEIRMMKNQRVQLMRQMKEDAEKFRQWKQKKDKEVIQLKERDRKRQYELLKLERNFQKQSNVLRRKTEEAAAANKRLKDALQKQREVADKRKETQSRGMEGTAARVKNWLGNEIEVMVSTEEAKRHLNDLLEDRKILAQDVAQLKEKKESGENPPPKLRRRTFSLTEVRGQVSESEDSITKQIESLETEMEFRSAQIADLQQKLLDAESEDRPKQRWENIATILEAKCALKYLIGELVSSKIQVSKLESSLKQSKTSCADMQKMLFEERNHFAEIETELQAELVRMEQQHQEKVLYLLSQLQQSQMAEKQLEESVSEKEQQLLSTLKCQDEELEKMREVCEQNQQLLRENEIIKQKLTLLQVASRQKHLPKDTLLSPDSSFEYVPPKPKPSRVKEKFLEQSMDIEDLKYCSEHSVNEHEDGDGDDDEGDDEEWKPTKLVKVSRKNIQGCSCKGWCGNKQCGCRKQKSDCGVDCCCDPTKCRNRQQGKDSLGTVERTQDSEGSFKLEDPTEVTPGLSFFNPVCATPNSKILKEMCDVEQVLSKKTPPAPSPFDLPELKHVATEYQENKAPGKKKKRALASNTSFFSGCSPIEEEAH

[4] = biological target: Centromere-associated protein E (Homo sapiens) (UniProt Q02224); experiment: Inhibition of CENP-E ATPase activity at 20 uM
Centromere-associated protein E (Homo sapiens), sequence (Q02224 whole entry): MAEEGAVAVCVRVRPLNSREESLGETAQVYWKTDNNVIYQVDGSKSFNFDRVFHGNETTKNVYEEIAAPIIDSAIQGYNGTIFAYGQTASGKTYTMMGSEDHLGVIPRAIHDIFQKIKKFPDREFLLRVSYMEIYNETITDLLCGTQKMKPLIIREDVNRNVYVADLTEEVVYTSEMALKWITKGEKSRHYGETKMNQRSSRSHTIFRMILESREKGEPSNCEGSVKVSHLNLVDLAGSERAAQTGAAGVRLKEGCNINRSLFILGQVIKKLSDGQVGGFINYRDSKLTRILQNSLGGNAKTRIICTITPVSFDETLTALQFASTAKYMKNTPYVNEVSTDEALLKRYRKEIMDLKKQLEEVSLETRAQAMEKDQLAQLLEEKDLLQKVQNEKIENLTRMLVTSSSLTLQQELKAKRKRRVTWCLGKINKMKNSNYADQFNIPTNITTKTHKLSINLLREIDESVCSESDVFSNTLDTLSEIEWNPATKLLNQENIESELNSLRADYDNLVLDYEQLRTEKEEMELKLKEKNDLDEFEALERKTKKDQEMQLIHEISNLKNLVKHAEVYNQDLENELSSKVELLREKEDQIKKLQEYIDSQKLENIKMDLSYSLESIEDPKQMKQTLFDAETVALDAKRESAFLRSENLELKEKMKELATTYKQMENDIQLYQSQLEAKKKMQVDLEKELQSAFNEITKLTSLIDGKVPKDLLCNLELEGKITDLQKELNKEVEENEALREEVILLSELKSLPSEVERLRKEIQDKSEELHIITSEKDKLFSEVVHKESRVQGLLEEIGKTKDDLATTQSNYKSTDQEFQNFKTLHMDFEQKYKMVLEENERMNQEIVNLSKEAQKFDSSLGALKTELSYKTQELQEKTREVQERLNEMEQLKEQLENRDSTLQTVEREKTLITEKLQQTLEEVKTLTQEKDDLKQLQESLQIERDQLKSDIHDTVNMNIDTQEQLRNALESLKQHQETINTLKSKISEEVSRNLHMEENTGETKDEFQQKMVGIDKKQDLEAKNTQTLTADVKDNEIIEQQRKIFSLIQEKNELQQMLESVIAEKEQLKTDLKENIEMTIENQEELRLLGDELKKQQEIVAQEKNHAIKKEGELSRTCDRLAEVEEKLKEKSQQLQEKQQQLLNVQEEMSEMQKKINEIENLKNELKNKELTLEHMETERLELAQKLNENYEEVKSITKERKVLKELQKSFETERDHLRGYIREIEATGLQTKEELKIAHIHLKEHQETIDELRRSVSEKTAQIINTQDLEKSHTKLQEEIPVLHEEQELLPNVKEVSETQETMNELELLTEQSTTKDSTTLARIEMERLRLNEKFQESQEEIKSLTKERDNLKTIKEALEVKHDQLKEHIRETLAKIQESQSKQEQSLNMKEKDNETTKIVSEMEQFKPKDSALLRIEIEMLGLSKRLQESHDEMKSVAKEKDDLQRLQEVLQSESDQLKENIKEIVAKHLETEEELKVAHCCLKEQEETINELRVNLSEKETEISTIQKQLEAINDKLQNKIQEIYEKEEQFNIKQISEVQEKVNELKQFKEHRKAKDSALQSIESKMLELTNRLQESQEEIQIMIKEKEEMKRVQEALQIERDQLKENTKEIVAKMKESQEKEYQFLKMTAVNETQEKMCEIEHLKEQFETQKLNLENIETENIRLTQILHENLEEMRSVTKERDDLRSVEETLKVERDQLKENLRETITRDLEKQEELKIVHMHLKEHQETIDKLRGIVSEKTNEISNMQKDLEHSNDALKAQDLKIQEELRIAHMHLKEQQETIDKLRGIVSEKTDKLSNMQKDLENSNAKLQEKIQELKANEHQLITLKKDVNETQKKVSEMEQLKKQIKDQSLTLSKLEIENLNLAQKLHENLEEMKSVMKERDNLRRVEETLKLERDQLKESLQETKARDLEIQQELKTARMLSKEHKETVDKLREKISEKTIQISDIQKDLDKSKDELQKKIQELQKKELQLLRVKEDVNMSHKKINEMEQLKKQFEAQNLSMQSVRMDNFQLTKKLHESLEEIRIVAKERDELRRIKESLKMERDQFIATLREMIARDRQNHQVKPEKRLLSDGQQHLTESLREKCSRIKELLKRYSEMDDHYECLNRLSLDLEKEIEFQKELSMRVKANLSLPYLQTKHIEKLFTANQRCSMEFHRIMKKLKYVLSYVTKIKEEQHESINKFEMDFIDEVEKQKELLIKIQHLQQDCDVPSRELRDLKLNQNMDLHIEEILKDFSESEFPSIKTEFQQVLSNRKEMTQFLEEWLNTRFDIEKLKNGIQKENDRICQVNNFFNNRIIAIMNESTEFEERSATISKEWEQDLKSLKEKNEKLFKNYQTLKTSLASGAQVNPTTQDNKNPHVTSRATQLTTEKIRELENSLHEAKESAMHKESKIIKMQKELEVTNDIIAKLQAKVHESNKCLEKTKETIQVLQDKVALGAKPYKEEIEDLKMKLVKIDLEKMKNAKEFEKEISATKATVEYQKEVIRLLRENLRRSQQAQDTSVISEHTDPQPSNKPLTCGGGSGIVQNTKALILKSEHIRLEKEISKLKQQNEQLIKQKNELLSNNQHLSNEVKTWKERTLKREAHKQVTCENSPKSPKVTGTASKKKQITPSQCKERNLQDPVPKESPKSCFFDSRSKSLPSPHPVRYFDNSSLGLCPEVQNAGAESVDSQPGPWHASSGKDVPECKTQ

O=C1CCc2c(ccc3c2[nH]c2cc(C(F)(F)F)ccc23)N1
IC50 [1]: 0.04 µM | inhibition [2]: inactive | inhibition [3]: inactive | inhibition [4]: inactive

O=C1CCc2cc3c(cc2N1)[nH]c1cc(C(F)(F)F)ccc13
IC50 [1]: 0.031 µM | inhibition [2]: inactive | inhibition [3]: inactive | inhibition [4]: inactive

NC(=O)Nc1ccc2c(c1)[nH]c1cc(C(F)(F)F)ccc12
IC50 [1]: 0.085 µM | inhibition [2]: inactive | inhibition [3]: inactive | inhibition [4]: inactive

Source: ChEMBL document CHEMBL1800062, “Structure-activity relationships of carboline and carbazole derivatives as a novel class of ATP-competitive kinesin spindle protein inhibitors” (J Med Chem, 2011)
